Results reported in ChEMBL document CHEMBL3124876, “A perylene derivative regulates HIF-1α and Stat3 signaling pathways” (Bioorg Med Chem, 2014).
Activity calls are given as the source filed them. No cut-off for these calls is given here.

Columns and labels:
[1] = biological target: Hypoxia-inducible factor 1-alpha (Homo sapiens) (UniProt Q16665); assay: Inhibition of HIF-1alpha in human MDA-MB-231 cells at 10 uM after 18 hrs by Western blotting analysis in hypoxia condition; type: cell-based
MDA-MB-231 [2] = assay: Antitumor activity against human MDA-MB-231 cells xenografted in Balb nu/nu mouse assessed as reduction in tumor growth at 5 mg/kg, po administered every other day for 10 days; type: functional, organism-based; set-up: dose 5 mg/kg
[3] = biological target: Proto-oncogene tyrosine-protein kinase Src (Homo sapiens) (UniProt P12931); assay: Inhibition of […] phosphorylation in human MDA-MB-231 cells at 0.05 to 10 uM by Western blotting analysis; type: cell-based
[4] = biological target: Signal transducer and activator of transcription 3 (Homo sapiens) (UniProt P40763); details: 10 uM
Description: Inhibition of STAT3 (unknown origin) assessed as total STAT3 level at 10 uM after 6 hrs by cell-based Western blotting analysis

[5] = biological target: Signal transducer and activator of transcription 3 (Homo sapiens) (UniProt P40763); details: MDA-MB-468, 1 to 20 uM
Description: Inhibition of Stat3 phosphorylation in human MDA-MB-468 cells assessed as inhibition of Bcl2 expression at 1 to 20 uM by Western blotting analysis in hypoxia condition

OVCAR-3 = assay: Reduction of total Stat3 level in human OVCAR3 cells at 1 to 20 uM by Western blotting analysis; type: functional, cell-based
[6] = biological target: Signal transducer and activator of transcription 3 (Homo sapiens) (UniProt P40763); assay: Inhibition of Stat3 phosphorylation in human MDA-MB-231 cells assessed as inhibition of c-Myc expression at 1 to 20 uM by Western blotting analysis; type: cell-based
[7] = biological target: Hypoxia-inducible factor 1-alpha (Homo sapiens) (UniProt Q16665); assay: Inhibition of HIF-1 alpha in human MDA-MB-468 cells assessed as proteasomal degradation at 4 to 7 uM after 18 hrs by immunoblotting analysis in hypoxia condition in presence of MG132; type: cell-based
MCF7 = assay: Induction of apoptosis in human MCF7 cells assessed as reduction in cell viability at 8 uM after 12 to 48 hrs by MTT assay; type: functional, cell-based
MDA-MB-468 [8] = assay: Inhibition of HIF-1 in human MDA-MB-468 cells assessed as reduction of VEGF mRNA expression at 5 to 10 uM by RT-PCR analysis in hypoxia condition; type: cell-based
[9] = biological target: Histone acetyltransferase p300 (Homo sapiens) (UniProt Q09472); assay: Inhibition of P300 in human MDA-MB-468 cells at 1 to 20 uM by Western blotting analysis; type: cell-based
[10] = biological target: Signal transducer and activator of transcription 3 (Homo sapiens) (UniProt P40763); assay: Inhibition of Stat3 in human MDA-MB-231 cells assessed as inhibition of Stat3 phosphorylation at 10 uM after 18 hrs by Western blotting analysis; type: cell-based
[11] = biological target: T1, Signal transducer and activator of transcription 5A (Homo sapiens) (UniProt P42229); assay: Inhibition of Stat5 phosphorylation in human PANC1 cells at 0.5 to 20 uM by Western blotting analysis; type: cell-based; details: PANC-1
T1 sequence (whole entry): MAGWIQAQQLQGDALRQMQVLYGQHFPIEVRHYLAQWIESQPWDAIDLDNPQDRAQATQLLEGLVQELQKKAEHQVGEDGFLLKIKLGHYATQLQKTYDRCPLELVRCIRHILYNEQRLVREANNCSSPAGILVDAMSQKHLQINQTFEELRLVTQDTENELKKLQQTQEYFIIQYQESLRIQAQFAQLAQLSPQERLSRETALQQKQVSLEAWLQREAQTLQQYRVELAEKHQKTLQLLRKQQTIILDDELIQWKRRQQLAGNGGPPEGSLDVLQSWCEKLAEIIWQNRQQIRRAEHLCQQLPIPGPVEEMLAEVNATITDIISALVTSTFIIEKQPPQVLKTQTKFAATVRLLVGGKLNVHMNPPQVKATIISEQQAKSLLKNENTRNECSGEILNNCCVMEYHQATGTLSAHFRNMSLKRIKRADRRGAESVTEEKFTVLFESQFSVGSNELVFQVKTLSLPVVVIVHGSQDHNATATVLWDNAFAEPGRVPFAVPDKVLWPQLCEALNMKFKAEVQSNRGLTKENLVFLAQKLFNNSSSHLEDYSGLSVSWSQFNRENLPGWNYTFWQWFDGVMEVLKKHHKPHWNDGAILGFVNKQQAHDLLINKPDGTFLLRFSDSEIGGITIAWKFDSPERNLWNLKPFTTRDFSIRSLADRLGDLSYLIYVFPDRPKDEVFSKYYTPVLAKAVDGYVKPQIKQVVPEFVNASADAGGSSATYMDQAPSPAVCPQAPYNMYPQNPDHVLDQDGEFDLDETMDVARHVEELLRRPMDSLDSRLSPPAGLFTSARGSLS

[12] = biological target: Tyrosine-protein kinase JAK2 (Homo sapiens) (UniProt O60674); assay: Inhibition of JAK2 (unknown origin) phosphorylation at 10 uM after 6 hrs by cell-based Western blotting analysis
MDA-MB-231 [13] = assay: Anticancer activity in human MDA-MB-231 cells assessed as reduction of total Stat3 level at 10 uM after 18 hrs by Western blotting analysis; type: functional, cell-based
MDA-MB-231 [14] = assay: Induction of apoptosis in human MDA-MB-231 cells assessed as reduction in cell viability at 1 to 10 uM by MTT assay; type: functional, cell-based
[15] = Reduction of HIF-1 alpha mRNA expression in human PANC1 cells at 5 to 10 uM by qRT-PCR analysis; type: functional, cell-based; details: PANC-1
MDA-MB-231 [16] = assay: Induction of apoptosis in human MDA-MB-231 cells assessed as reduction in cell viability at 8 uM after 12 to 48 hrs by MTT assay; type: functional, cell-based
[17] = Induction of apoptosis in human MCF10A cells assessed as reduction in cell viability at 1 to 10 uM by MTT assay; type: cell-based; details: mcf-10a
[18] = biological target: Tyrosine-protein kinase JAK2 (Homo sapiens) (UniProt O60674); assay: Inhibition of JAK2 phosphorylation in human MDA-MB-231 cells at 0.05 to 10 uM by Western blotting analysis; type: cell-based
PANC-1 [19] = assay: Antitumor activity against human PANC1 cells xenografted in Balb nu/nu mouse assessed as tumor regression at 2 mg/kg, ip administered every other day for 10 days measured after 19 days; type: functional, organism-based; set-up: dose 2 mg/kg
[20] = biological target: Hypoxia-inducible factor 1-alpha (Homo sapiens) (UniProt Q16665); assay: Inhibition of HIF-1 alpha in human PC3 cells after 18 hrs by Western blotting analysis in hypoxia condition; type: cell-based; details: PC-3
[21] = biological target: Signal transducer and activator of transcription 3 (Homo sapiens) (UniProt P40763); details: 10 uM; remark: listed apart in the source
Description: Inhibition of STAT3 (unknown origin) phosphorylation at 10 uM after 30 mins by cell-based Western blotting analysis

MDA-MB-231 [22] = assay: Antitumor activity against human MDA-MB-231 cells xenografted in Balb nu/nu mouse assessed as reduction in tumor growth at 2 mg/kg, ip administered every other day for 10 days; type: functional, organism-based; set-up: dose 2 mg/kg
[23] = biological target: Signal transducer and activator of transcription 3 (Homo sapiens) (UniProt P40763); details: PANC-1, 1 to 20 uM
Description: Inhibition of Stat3 phosphorylation in human PANC1 cells assessed as inhibition of Bcl2 expression at 1 to 20 uM by Western blotting analysis in normoxia condition

[24] = biological target: Endothelial PAS domain-containing protein 1 (Homo sapiens) (UniProt Q99814); assay: Inhibition of HIF-2 alpha in human PC3 cells after 18 hrs by Western blotting analysis in hypoxia condition; type: cell-based; details: PC-3
MDA-MB-468 [25] = assay: Induction of apoptosis in human MDA-MB-468 cells assessed as reduction in cell viability at 1 to 10 uM by MTT assay; type: functional, cell-based
PANC-1 [26] = assay: Reduction of total Stat3 level in human PANC1 cells at 0.5 to 20 uM by Western blotting analysis; type: functional, cell-based

Hypoxia-inducible factor 1-alpha (Homo sapiens), sequence (Q16665 whole entry, looked up): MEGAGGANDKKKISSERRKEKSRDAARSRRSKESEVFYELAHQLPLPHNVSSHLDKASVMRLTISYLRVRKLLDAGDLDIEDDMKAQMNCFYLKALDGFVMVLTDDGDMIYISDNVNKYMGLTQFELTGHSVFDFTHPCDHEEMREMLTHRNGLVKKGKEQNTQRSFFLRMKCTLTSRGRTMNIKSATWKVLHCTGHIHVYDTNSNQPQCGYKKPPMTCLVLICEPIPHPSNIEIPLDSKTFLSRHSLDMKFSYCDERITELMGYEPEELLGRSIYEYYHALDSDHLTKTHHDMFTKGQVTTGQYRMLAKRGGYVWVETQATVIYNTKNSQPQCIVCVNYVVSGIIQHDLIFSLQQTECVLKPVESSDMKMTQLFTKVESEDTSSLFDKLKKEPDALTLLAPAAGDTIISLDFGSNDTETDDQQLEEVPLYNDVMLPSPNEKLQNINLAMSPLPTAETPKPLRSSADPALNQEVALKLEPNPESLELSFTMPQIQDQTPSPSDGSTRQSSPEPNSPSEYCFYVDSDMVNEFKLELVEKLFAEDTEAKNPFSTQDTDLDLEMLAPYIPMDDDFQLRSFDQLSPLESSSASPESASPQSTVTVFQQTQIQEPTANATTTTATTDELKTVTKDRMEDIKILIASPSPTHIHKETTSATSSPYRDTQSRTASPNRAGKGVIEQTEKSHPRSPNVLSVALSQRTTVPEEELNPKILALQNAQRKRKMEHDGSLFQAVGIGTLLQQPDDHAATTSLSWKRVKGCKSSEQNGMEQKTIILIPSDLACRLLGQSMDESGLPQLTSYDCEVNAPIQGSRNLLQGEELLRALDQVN
Signal transducer and activator of transcription 3 (Homo sapiens), sequence (P40763 whole entry, the tested form may be a part): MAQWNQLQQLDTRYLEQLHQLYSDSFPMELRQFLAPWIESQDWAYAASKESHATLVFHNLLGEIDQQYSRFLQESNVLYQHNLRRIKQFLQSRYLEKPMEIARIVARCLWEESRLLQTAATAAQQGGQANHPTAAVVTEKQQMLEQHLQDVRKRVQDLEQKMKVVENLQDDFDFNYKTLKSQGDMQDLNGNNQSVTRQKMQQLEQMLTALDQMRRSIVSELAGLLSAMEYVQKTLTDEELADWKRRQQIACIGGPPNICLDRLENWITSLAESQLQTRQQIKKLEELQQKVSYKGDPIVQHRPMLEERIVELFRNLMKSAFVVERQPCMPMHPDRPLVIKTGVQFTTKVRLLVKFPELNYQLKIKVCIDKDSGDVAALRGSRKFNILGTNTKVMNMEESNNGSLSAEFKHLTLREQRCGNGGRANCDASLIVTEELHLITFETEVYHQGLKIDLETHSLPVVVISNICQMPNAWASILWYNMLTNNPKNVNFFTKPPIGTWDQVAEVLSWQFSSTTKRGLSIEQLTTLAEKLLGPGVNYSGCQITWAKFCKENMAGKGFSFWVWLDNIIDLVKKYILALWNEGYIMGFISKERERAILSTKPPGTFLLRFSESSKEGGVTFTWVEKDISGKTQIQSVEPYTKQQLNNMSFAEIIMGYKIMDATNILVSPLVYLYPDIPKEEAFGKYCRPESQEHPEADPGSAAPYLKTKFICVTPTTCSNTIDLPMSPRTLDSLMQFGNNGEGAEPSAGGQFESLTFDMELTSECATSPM
Tyrosine-protein kinase JAK2 (Homo sapiens), sequence (O60674 whole entry): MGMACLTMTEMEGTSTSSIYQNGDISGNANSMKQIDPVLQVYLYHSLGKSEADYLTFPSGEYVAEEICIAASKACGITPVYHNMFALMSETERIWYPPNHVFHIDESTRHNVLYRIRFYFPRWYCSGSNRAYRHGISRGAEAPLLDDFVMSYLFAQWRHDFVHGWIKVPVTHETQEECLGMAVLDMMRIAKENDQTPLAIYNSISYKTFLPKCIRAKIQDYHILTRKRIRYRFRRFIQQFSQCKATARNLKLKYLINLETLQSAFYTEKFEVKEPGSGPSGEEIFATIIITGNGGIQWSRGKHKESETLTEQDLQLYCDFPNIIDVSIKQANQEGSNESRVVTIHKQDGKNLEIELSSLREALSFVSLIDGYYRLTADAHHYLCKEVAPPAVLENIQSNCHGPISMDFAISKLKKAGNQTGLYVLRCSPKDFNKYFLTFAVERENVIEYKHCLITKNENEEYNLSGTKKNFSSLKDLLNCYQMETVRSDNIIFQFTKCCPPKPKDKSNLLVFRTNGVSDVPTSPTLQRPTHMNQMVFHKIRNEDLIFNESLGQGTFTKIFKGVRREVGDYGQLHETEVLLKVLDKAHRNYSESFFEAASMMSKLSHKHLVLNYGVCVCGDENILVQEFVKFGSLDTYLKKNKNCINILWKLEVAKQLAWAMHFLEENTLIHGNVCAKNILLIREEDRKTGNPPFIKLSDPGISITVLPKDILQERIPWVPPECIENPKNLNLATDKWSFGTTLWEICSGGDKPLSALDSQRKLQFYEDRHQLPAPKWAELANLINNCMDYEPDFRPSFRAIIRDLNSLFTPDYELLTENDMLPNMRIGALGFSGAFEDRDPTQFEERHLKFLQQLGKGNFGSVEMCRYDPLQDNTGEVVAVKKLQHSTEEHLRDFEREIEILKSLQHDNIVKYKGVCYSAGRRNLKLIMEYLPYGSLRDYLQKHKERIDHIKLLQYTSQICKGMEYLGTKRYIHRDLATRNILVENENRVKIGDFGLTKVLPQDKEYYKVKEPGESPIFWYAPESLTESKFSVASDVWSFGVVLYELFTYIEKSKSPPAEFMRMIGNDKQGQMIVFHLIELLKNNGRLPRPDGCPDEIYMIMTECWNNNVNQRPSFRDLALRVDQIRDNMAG
Endothelial PAS domain-containing protein 1 (Homo sapiens), sequence (Q99814 whole entry, the tested form may be a part): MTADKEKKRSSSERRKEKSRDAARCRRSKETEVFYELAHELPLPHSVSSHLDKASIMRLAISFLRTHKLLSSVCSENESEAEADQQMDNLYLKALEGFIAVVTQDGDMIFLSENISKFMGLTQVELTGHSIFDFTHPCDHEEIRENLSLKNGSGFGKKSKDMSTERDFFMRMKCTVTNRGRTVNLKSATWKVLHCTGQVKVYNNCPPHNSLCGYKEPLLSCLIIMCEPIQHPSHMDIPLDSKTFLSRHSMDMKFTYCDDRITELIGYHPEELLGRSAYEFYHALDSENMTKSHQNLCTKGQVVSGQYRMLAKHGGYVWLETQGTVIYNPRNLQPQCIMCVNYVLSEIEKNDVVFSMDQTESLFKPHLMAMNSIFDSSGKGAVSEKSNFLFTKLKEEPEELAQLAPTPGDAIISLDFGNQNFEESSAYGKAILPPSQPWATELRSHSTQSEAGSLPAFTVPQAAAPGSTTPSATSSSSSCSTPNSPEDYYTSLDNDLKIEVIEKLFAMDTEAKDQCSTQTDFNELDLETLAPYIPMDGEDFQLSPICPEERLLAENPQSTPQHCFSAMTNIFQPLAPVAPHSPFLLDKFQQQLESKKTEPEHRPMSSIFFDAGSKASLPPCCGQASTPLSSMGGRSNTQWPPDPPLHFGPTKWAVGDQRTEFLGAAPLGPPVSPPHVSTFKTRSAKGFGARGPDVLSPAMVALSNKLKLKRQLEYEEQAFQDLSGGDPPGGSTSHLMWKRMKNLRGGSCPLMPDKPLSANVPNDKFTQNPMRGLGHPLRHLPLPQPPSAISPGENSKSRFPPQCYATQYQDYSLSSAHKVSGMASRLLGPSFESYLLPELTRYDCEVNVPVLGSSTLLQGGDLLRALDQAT
Proto-oncogene tyrosine-protein kinase Src (Homo sapiens), sequence (P12931 2-536 limits assumed): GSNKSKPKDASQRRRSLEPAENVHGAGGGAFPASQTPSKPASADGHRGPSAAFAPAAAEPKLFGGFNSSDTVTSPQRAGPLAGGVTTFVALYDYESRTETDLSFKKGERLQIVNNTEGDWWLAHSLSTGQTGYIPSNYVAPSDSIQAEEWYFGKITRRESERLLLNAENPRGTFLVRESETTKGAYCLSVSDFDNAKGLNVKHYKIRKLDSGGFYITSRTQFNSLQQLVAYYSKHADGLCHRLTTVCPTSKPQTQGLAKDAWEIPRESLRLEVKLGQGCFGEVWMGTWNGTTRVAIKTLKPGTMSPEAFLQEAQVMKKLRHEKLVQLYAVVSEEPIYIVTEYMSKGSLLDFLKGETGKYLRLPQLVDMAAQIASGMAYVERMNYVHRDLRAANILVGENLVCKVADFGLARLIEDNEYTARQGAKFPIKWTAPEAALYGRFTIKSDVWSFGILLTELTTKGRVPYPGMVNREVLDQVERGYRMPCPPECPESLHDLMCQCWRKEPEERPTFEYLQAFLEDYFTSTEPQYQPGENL

inhibition [1]: Active
inhibition [3]: inactive
inhibition [4]: inactive
inhibition [5]: Active
inhibition [6]: Active
inhibition [7]: Active
inhibition [9]: inactive
inhibition [10]: Active
inhibition [11]: inactive
inhibition [12]: inactive
inhibition [18]: inactive
inhibition [20]: Active
inhibition [21]: Active
inhibition [23]: Active
inhibition [24]: Active
SMILES: CN(C)CCCN1C(=O)c2ccc3c4ccc5c6c(ccc(c7ccc(c2c37)C1=O)c64)C(=O)N(CCCN(C)C)C5=O
Activity (MDA-MB-231 [2]): Active
Activity (OVCAR-3): Active
Activity (MCF7): Active
inhibition (MDA-MB-468 [8]): Active
Activity (MDA-MB-231 [13]): inactive
Activity (MDA-MB-231 [14]): Active
Activity [15]: inactive
Activity (MDA-MB-231 [16]): Active
Activity [17]: Non-toxic
Activity (PANC-1 [19]): Active
Activity (MDA-MB-231 [22]): Active
Activity (MDA-MB-468 [25]): Active
Activity (PANC-1 [26]): Active
